Assay: RP, Thermo Scientific Acclaim RSLC 120 C18, 100 × 2.1 mm, 2.2 µm, 30 °C, 0.2 mL/min, estimated dead time 1.1 min; A: 90% water + 10% methanol + 0.01% formic acid + 5 mM ammonium formate, pH 3.61; B: methanol + 0.01% formic acid + 5 mM ammonium formate, pH 3.61; gradient (min/%B) 0/1 1/1 2/39 13/99.9 15/99.9 15.1/1 20.1/1
Conditions: stereoisomer not certain

Compound	LC retention time [min]
CCOC(=O)C(C)OC(=O)c1cc(Oc2ccc(C(F)(F)F)cc2Cl)ccc1[N+](=O)[O-] (stereo not given) [Lactofen]	12.2
CCC(C)C1OC2(CCC1C)CC1CC(CC=C(C)C(OC3CC(OC)C(OC4CC(OC)C(O)C(C)O4)C(C)O3)C(C)C=CC=C3COC4C(O)C(C)=CC(C(=O)O1)C34O)O2 (stereo not given) [Ivermectin B1a]	14.4
COc1ccc(C(CN(C)C)C2(O)CCCCC2)cc1 (stereo not given) [Venlafaxine]	6.14
CCNCC(O)c1cccc(O)c1 (stereo not given) [Etilefrine]	2.66
CON(C)C(=O)Nc1ccc(Br)c(Cl)c1 [Chlorbromuron]	9.55
CCNC(C)C(=O)c1ccc(C)cc1 (stereo not given) [MEC (4-)]	4.74
CN1CCN(C=C2N=C3CN=C(c4ccccc4Cl)c4cc([N+](=O)[O-])ccc4N3C2=O)CC1 [Loprazolam]	6.95
O=C1C(CCS(=O)c2ccccc2)C(=O)N(c2ccccc2)N1c1ccccc1 (stereo not given) [Sulfinpyrazone]	7.94
CNC(=O)Oc1cc(C)c(S(C)=O)c(C)c1 (stereo not given) [Methiocarb-sulfoxide]	4.86
CCCCCCCCCCCC[N+](CCO)(CCO)Cc1ccccc1 [Benzoxonium]	11.3
CNC(=O)Oc1cccc2c1OC(C)(C)C2O (stereo not given) [Carbofuran-3-hydroxy]	5.09
CN1CCC23c4c5ccc(O)c4OC2C(=O)CCC3C1C5 (stereo not given) [Hydromorphone]	2.91
CCOC1Oc2ccc(OS(C)(=O)=O)cc2C1(C)C (stereo not given) [Ethofumesate]	9.14
COCC(=O)N(c1c(C)cccc1C)N1CCOC1=O [Oxadixyl]	6.29
N#CCCCCn1cc(C(=O)c2cccc3ccccc23)c2ccccc21 [AM-2232]	9.69
CCNC(C)C(=O)c1ccccc1 (stereo not given) [Cathinone-Ethyl]	3.93
CC(O)(CS(=O)(=O)c1ccc(F)cc1)C(=O)Nc1ccc(C#N)c(C(F)(F)F)c1 (stereo not given) [Bicalutamide]	8.71
CCOCN(C(=O)CCl)c1c(C)cccc1CC [Acetochlor]	10.2
CC(C)=CC1C(C(=O)OCc2coc(Cc3ccccc3)c2)C1(C)C (stereo not given) [Bioresmethrin]	13.6
COc1cccc2c(C(=O)NC3C4(C)CCC(C4)C3(C)C)cn(CCN3CCOCC3)c12 (stereo not given) [MN-25]	11.7

Compound	LC retention time [min]
NC1CC1c1ccccc1 (stereo not given) [Tranylcypromine]	4.27
CCSC(=O)N(CC(C)C)CC(C)C [Butylate]	12
c1ccc(CN2CCNCC2)cc1 [Benzylpiperazine]	4.23
CCC(CO)NCCNC(CC)CO (stereo not given) [Ethambutol]	1.93
CCCCOC(=O)c1ccccc1C(=O)OCc1ccccc1 [Phthalate-Benzyl butyl]	12.4
CC(C)N1C(=O)N(c2ccccc2)CSC1=NC(C)(C)C [Buprofezin  (Z-isomer. Buprofexin)]	12.2
O=S1(=O)OCC2C(CO1)C1(Cl)C(Cl)=C(Cl)C2(Cl)C1(Cl)Cl (stereo not given) [Endosulfan-sulfate]	11.1
Nc1nc(=S)c2[nH]cnc2[nH]1 [Thioguanine]	2.53
CC(C)(C)C(O)C(Cc1ccc(Cl)cc1Cl)n1cncn1 (stereo not given) [Diclobutrazol]	10.7
O=P1(N(CCCl)CCCl)NCCCO1 (stereo not given) [Cyclophosphamide]	6.24
Cc1cc2n[nH]nc2cc1C [Benzotriazole-5 6-di-Me]	6.76
CCCSc1cc(OC)c(CCN)cc1OC [2C-T-7]	6.98
CC(O)CCCn1cc(C(=O)c2cccc3ccccc23)c2ccccc21 (stereo not given) [JWH-018-M-N-4-OH-Pentyl]	10.1
Cc1nnc2n1-c1sc(Br)cc1C(c1ccccc1Cl)=NC2 [Brotizolam]	8.28
CN1CCCCC(n2cc(C(=O)c3cccc4ccccc34)c3ccccc32)C1 (stereo not given) [AM-1220-Azepane]	8.61
CC1CCCC(C)N1CCCC(O)(c1ccccc1)c1ccccn1 (stereo not given) [Pirmenol]	6.01
COc1ccccc1Oc1c(NS(=O)(=O)c2ccc(C(C)(C)C)cc2)nc(-c2ncccn2)nc1OCCO [Bosentan]	9.96
CCN(Cc1ccc(Cl)nc1)C(=C[N+](=O)[O-])NC [Nitenpyram]	3.9
CC1C=CC=CCCC=CC=CC=CC=CC(OC2OC(C)C(O)C(N)C2O)CC2OC(O)(CC(O)C(O)CCC(O)CC(O)CC(O)CC(=O)OC(C)C(C)C1O)CC(O)C2C(=O)O (stereo not given) [Nystatin]	10.3
COC(=O)c1cccc(C)c1S(=O)(=O)NC(=O)Nc1nc(OCC(F)(F)F)nc(N(C)C)n1 [Triflusulfuron-methyl]	9.22

Compound	LC retention time [min]
CCC1COC(Cn2cncn2)(c2ccc(Cl)cc2Cl)O1 (stereo not given) [Etaconazole]	10.2
Cc1c(C=O)c(=O)n(-c2ccccc2)n1C [4-Formyl-antipyrine]	3.98
CCOC(=O)C1C(OC(=O)c2ccccc2)CC2CCC1N2C (stereo not given) [Cocaethylene]	5.46
CN(C)C(=O)Oc1cc(OC(=O)N(C)C)cc(C(O)CNC(C)(C)C)c1 (stereo not given) [Bambuterol]	5.16
CC12CCC(=O)C=C1CCC1C2CCC2(C)C1CCC2(C)O (stereo not drawn) [Testosterone- 17-alpha-methyl]	10.4
CCNc1nc(NC(C)(C)C)nc(OC)n1 [Terbumeton]	9.16
OC(CCN1CCCCC1)(c1ccccc1)C1CCCCC1 (stereo not given) [Trihexyphenidyl. Benzhexol]	7.86
CN1CCN(CCCN2c3ccccc3Sc3ccccc32)CC1 [Perazine]	8.8
CCC1C(=O)OCC1Cc1cncn1C (stereo not given) [Pilocarpine]	2.74
CCOP(=S)(OCC)Oc1ccc([N+](=O)[O-])cc1 [Parathion]	10.7
COP(=O)(OC)Oc1ccc(SC)c(C)c1 [Fenthion-oxon]	8.82
COc1cccc(C(=O)NN(C(=O)c2cc(C)cc(C)c2)C(C)(C)C)c1C [Methoxyfenozide]	9.56
CCCc1nn(C)c2c(=O)[nH]c(-c3cc(S(=O)(=O)N4CCN(Cc5ccccc5)CC4)ccc3OCC)nc12 [Sildenafil-Benzyl]	11.5
CCCC(C(=O)c1ccc(C)cc1)N1CCCC1 (stereo not given) [Pyrovalerone]	6.03
Cc1ccc(C(=O)C(C)N2CCCC2)cc1 (stereo not given) [MePPP (4-4-Methyl-pyrrolidinopropiophenone)]	4.76
CC(C)c1ccc(NC(=O)N(C)C)cc1 [Isoproturon]	8.32
NC(Cc1ccc(N(CCCl)CCCl)cc1)C(=O)O (stereo not given) [Melphalan]	7.01
CCOP(=S)(OCC)SC(CCl)N1C(=O)c2ccccc2C1=O (stereo not given) [Dialifos]	11.5

The next lines start with the values.

LC retention time [min]	Compound
4.31	CCN(CC)CCNC(=O)COc1ccc(OC)cc1 [Mefexamide]
10.7	C#CCOC(=O)C(C)Oc1ccc(Oc2ncc(Cl)cc2F)cc1 (stereo not given) [Clodinafop-propargyl]
3.83	Clc1cccc(Cl)c1NC1=NCCN1 [Clonidine]
5.6	COc1cc(NS(=O)(=O)c2ccc(N)cc2)nc(OC)n1 [Sulfadimethoxine]
10.3	Cc1[nH]oc(=O)c1N=Nc1ccccc1Cl [Drazoxolon]
4.44	COc1nccnc1NS(=O)(=O)c1ccc(N)cc1 [Sulfalene]
9.95	CCc1nn(CCCN2CCN(c3cccc(Cl)c3)CC2)c(=O)n1CCOc1ccccc1 [Nefazodone]
6.41	c1ccc(CN(CC2=NCCN2)c2ccccc2)cc1 [Antazoline]
9.85	COC(=O)COc1ccc(Cl)cc1C [MCPA-methylester]
10.2	COC(=O)C(Cl)Cc1ccc(Cl)cc1 (stereo not given) [Chlorfenprop-methyl]
3.96	Cc1nc(C)c(Cl)c(NS(=O)(=O)c2ccc(N)cc2)n1 [Sulfaclomide]
7.94	CCOC(=O)C(CCc1ccccc1)NC1CCCN2CCCC(C(=O)O)N2C1=O (stereo not given) [Cilazapril]
11.6	Cc1cccc(Nc2ccccc2C(=O)O)c1C [Mefenamic acid]
7.29	CN(C)CCOc1ccccc1Cc1ccccc1 [Phenyltoloxamine]
7.13	CNC(=O)Nc1nc2ccccc2s1 [Benzthiazuron]
4.99	CN1C2CCCC1CC(NC(=O)c1nn(C)c3ccccc13)C2 (stereo not given) [Granisetron]
7.37	Cc1onc(-c2ccccc2)c1-c1ccc(S(N)(=O)=O)cc1 [Valdecoxib]
4.21	CC(CCc1ccc(O)cc1)NCCc1ccc(O)c(O)c1 (stereo not given) [Dobutamine]
5.13	CC(C)N(C(=O)C(=O)O)c1ccccc1 [Propachlor-OXA]
6.11	NC(=O)C1(N2CCCCC2)CCN(CCCC(=O)c2ccc(F)cc2)CC1 [Pipamperone]
12.2	CC(COc1ccc(C(C)(C)C)cc1)OS(=O)OCCCl (stereo not given) [Aramite (total)]
2.84	CC1=C(C(=O)O)N2C(=O)C(NC(=O)C(N)c3ccc(O)cc3)C2SC1 (stereo not given) [Cefadroxil]
5.45	Nc1ccc(S(=O)(=O)Nc2cncc(Cl)n2)cc1 [Sulfaclozine]
4.76	NC(=O)c1ccccc1O [Salicylamide]
9.39	N[C@@H](Cc1cc(I)c(Oc2cc(I)c(O)c(I)c2)c(I)c1)C(=O)O [L-Thyroxine]
7.21	CNCCN1C(=O)C(OC(C)=O)C(c2ccc(OC)cc2)Sc2ccccc21 (stereo not given) [Diltiazem-Nor]
12.7	CCc1c(C(=O)NCCc2ccc(N3CCCCC3)cc2)[nH]c2ccc(Cl)cc12

From the RepoRT retention time repository (doi:10.1021/acs.analchem.2c02893)
